Data on two compounds can be found in patent US8466167B2, “Compounds and compositions as TLR activity modulators” (IRM LLC, priority 2008, dated 2013).

One experiment has as its target T1, human TLR7 (Homo sapiens, UniProt Q9NYK1).
T1 construct: expressed in transfected cells; host or cells: HEK 293
T1 sequence (Q9NYK1 27-1049): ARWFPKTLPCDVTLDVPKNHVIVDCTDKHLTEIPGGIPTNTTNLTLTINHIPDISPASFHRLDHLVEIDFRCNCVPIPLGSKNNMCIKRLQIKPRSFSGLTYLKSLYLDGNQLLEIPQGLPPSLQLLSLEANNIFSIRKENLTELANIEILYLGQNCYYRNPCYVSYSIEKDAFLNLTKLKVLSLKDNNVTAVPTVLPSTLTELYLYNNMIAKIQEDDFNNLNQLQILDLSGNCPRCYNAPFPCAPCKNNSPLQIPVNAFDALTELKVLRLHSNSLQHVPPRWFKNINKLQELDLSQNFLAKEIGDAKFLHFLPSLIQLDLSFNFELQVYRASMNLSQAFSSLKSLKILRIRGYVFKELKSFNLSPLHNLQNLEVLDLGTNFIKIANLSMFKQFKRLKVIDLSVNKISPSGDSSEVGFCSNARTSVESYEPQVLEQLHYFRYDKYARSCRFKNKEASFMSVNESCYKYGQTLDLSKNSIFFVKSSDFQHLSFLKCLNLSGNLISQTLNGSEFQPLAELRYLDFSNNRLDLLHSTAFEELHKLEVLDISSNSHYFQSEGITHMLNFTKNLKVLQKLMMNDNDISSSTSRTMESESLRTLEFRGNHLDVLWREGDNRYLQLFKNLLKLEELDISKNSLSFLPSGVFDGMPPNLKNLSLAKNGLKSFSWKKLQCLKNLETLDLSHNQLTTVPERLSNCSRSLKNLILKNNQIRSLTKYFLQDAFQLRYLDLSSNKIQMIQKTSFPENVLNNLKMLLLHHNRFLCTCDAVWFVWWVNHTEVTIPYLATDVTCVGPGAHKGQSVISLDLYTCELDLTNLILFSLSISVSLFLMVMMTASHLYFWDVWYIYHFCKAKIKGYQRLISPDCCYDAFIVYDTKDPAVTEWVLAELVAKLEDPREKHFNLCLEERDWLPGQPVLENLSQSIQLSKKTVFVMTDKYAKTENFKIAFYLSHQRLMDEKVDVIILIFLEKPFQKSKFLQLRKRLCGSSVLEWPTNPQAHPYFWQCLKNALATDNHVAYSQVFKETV
Put plainly: Reporter gene assay, HEK293-TLR7 (NF-kB-driven luciferase). It is filed as cell-based. To be noted: TLR-7 stimulation; read-out: Human TLR-7 EC50. On the procedure: Human embryonic kidney 293 (HEK 293) cells are stably transfected with human TLR7 or TLR8 and an NF-kB-driven luciferase reporter vector (pNifty-Luciferase). As a control assay, normal Hek293 transfected with pNifty-Luc are used. Cells are cultured in DMEM supplemented with 2 mM L-glutamine, 10% heart inactivated FBS, 1% penicillin and streptomycin, 2 μg/ml puromycin (InvivoGen #ant-pr-5) and 5 μg/ml of blasticidin (Invitrogen #46-1120). Bright-Glo™ Luciferase assay buffer and substrate are supplied by Promega #E263B and #E264B (assay substrate and buffer respectively). 384 well clear-bottom plates are supplied by Greiner bio-one (#789163-G) and are GNF custom bar-coded plates.
Cells are plated at 25,000 cells/well in 384-well plates in a final volume of 50 μl of media. Cells are allowed to adhere to the plates after overnight (18 hours) culture at 37° C. 5% CO2. Serially diluted experimental and positive control compounds are then dispensed to each well and incubated for 7 hours at 37° C. 5% CO2. Cells stimulated with DMSO alone also serve as negative controls. After the incubation, 30 μl of the pre-mix assay buffer and substrate buffer are added to each well according to manufacturer's instructions. The luminescence signal is read on a CLIPR machine with an integration time of 20 seconds per plate.
Dose response curves are generated for each compound and EC50 values were determined as the concentration that gives 50% of the maximal signal.
Background: Reporter assays use an easily measured gene product as a stand-in for the process of interest.

The subject of experiment [1] is N. meningitidis serogroup B strain NZ98. Put plainly: In vivo enhancement of immune response to 3MenB vaccine, serum bactericidal antibody (SBA) titer. To be noted: for protective response in the mice (SBA titer of >1000 correlates with protection): 100 μg compound with 3MenB/MF59, NZ98 strain. As to the method: In a second experiment, the dose response of one compound, Example No. 47, was tested using the same protocol. […] The SBA titers were measured in all cases using the standard CFU method. The dose of each compound in μg is indicated on the left of FIG. 2.
FIG. 5 summarizes the data from the six total experiments. A titer of >1000 correlates with immunization providing protection against the pathogen tested in the SBA titer (i.e., the NZ/98 N. meningitidis serogroup B strain).

What is called EC50 is the concentration needed to bring the measured effect to its halfway point. `Cc1ccc(CCc2cnc3c(N)nc4ccccc4c3c2)c(C)c1` [Example 47, 2-(2,4-dimethylphenethyl)benzo[f][1,7]naphthyridin-5-amine]: on human TLR7, the EC50 amounted to 361 nM. Further, the “protective response in the mice (SBA titer of >1000 correlates with protection)” value in experiment [1] is reported as “protective response”. The “difference in SBA titer, immunization with a CpG oligo versus the compound” value in experiment [1] (mice, by p-value) is “did not produce a statistically significant difference”.
Regarding `Cc1ccc2c(c1)nc(N)c1ncc(CCc3ccc(N(C)C)cc3)cc12` [Example 169, 2-(4-(dimethylamino)phenethyl)-8-methylbenzo[f][1,7]naphthyridin-5-amine], the “protective response in the mice (SBA titer of >1000 correlates with protection)” value in experiment [1] was “protective response”.
